We go through two molecules from patent US6545031B1, “Endothelin receptor antagonists” (SmithKline Beecham Corporation, priority 1995, dated 2003).

The structures appear in SMILES notation.

Broadly, the melting point is the temperature, or range, at which the solid turns liquid.

Consider `CCCCn1ncc(/C=C(\Cc2cc3c(cc2OC)OCO3)C(=O)O)c1-c1ccc(OC)cc1OCc1ccccc1C(=O)O` [Example 1, (E)-alpha-[[1-n-Butyl-5-[2-[(2-carboxyphenyl)methoxy]-4-methoxyphenyl]-1H-pyrazol-4-yl]methylene]-6-methoxy-1,3-benzodioxole-5-propanoic Acid], for which the melting point was 213 to 214 °C. `CCCCn1cc(/C=C(\Cc2cc3c(cc2OC)OCO3)C(=O)O)c(-c2ccc(OC)cc2OCc2ccccc2C(=O)O)n1` [Example 2, (E)-alpha-[[1-n-Butyl-3-[2-[(2-carboxyphenyl)methoxy]-4-methoxyphenyl]-1H-pyrazol-4-yl]methylene]-6-methoxy-1,3-benzodioxole-5-propanoic Acid] showed a melting point of 226 to 227 °C.
